Assay results as given in PMC6431176 (Proceedings of the National Academy of Sciences of the …, 2019).

Target: T1, Stl1 (Saccharomyces cerevisiae, UniProt P39932)
T1 sequence (P39932 1-569): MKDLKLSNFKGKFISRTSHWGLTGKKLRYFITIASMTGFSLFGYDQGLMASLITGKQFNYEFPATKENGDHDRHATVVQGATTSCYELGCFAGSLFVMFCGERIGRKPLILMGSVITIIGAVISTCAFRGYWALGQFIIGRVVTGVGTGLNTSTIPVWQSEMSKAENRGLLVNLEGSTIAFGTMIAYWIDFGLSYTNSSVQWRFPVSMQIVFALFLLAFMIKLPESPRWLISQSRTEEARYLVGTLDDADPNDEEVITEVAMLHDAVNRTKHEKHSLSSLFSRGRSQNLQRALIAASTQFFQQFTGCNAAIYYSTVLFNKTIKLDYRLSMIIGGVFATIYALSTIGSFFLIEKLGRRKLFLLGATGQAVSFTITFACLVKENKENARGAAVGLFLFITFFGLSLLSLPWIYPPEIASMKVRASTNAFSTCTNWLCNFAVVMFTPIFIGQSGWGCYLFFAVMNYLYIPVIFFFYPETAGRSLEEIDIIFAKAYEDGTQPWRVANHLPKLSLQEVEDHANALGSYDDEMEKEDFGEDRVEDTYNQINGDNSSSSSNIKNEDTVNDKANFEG
Experiment: […]-glycerol accumulation in S. cerevisiae
Type: cell-based
Settings: labelled compound; 1 mM, Tris/citrate pH 5.0, 30 °C

SMILES: OCC(O)CO [glycerol]
- 14C-glycerol accumulation in S. cerevisiae: higher uptake rate of glycerol by the Stl1 transporter compared with the HGT-1 transporter
